Experimental data reported in PubChem BioAssay AID248 (DTP/NCI, 2004).
Toxic doses and inconclusive results are not listed. Cut-off read from the data, not from the text of the source: active = T/C of 150% or more; inactive = T/C below 125%.

Tested on: L1210 leukemia ip in BDF1 mice, survival T/C
Test: NCI In Vivo Anticancer Drug Screen. Data for tumor model L1210 Leukemia (intraperitoneal) in B6D2F1 (BDF1) mice
Details: endpoint: mean survival time, higher = longer survival
In short: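 Ratio derived from survival: compound-dosed mice over vehicle-dosed mice, all bearing a transplantable tumor.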

[1] = dose: 100.0 mg/kg/injection, schedule: Q04DX003 (ip), vehicle: saline with Tween-80
[2] = dose: 200.0 mg/kg/injection, schedule: Q04DX003 (ip), vehicle: saline with Tween-80
[3] = dose: 100.0 mg/kg/injection, schedule: Q01DX001 (ip), vehicle: Klucel (hydroxypropylcellulose) (HPC)
[4] = dose: 200.0 mg/kg/injection, schedule: Q01DX001 (ip), vehicle: Klucel (hydroxypropylcellulose) (HPC)
[5] = dose: 100.0 mg/kg/injection, schedule: Q01DX001 (ip), vehicle: saline
[6] = dose: 200.0 mg/kg/injection, schedule: Q01DX001 (ip), vehicle: saline
[7] = dose: 400.0 mg/kg/injection, schedule: Q01DX001 (ip), vehicle: saline

Measured: T/C

CCOC(=O)/C(=N\O)C(C)(C)c1ccnc2ccccc12
inactive: [1] 86 % of control | [2] 88 % of control | dose: 400.0 mg/kg/injection, schedule: Q04DX003 (ip), vehicle: saline with Tween-80 95 % of control

O=C(O)CSC(C(=O)O)c1ccccc1 (stereo not given)
inactive: dose: 50.0 mg/kg/injection, schedule: Q01DX009 (ip), vehicle: saline with Tween-80 93 % of control | dose: 100.0 mg/kg/injection, schedule: Q01DX009 (ip), vehicle: saline with Tween-80 92 % of control | [1] 94 % of control | dose: 200.0 mg/kg/injection, schedule: Q01DX009 (ip), vehicle: saline with Tween-80 93 % of control | [2] 97 % of control

CC(C)=NSc1ccccc1
inactive: dose: 50.0 mg/kg/injection, schedule: Q01DX001 (ip), vehicle: Klucel (hydroxypropylcellulose) (HPC) 99 % of control | [3] 97 % of control | [4] 97 % of control

O=C(NCCBr)C(F)(F)F
inactive: dose: 25.0 mg/kg/injection, schedule: Q01DX009 (ip), vehicle: saline 113 % of control | dose: 50.0 mg/kg/injection, schedule: Q01DX009 (ip), vehicle: saline 103 % of control | [5] 104 % of control | dose: 100.0 mg/kg/injection, schedule: Q01DX009 (ip), vehicle: saline 105 % of control | [6] 109 % of control | [7] 112 % of control

CN(C)S(=O)(=O)c1ccc(CCc2ccccc2)cc1
inactive: dose: 50.0 mg/kg/injection, schedule: Q01DX001 (ip), vehicle: saline 101 % of control | [5] 95 % of control | [6] 95 % of control | [7] 95 % of control

Cc1ccc(S(=O)(=O)OC2C3OC(=S)OCC3OC3OC(C)(C)OC32)cc1 (stereo not given)
inactive: dose: 25.0 mg/kg/injection, schedule: Q04DX002 (ip), vehicle: saline 104 % of control | dose: 50.0 mg/kg/injection, schedule: Q04DX002 (ip), vehicle: saline 107 % of control | dose: 100.0 mg/kg/injection, schedule: Q04DX002 (ip), vehicle: saline 107 % of control

CC(=O)c1ccc2oc3ccccc3c2c1
inactive: dose: 100.0 mg/kg/injection, schedule: Q04DX002 (ip), vehicle: Klucel (hydroxypropylcellulose) (HPC) 97 % of control | dose: 200.0 mg/kg/injection, schedule: Q04DX002 (ip), vehicle: Klucel (hydroxypropylcellulose) (HPC) 100 % of control | dose: 400.0 mg/kg/injection, schedule: Q04DX002 (ip), vehicle: Klucel (hydroxypropylcellulose) (HPC) 93 % of control

O=C(COc1ccc(Cl)cc1Cl)Nc1ncn[nH]1
inactive: [3] 101 % of control | [4] 104 % of control | dose: 400.0 mg/kg/injection, schedule: Q01DX001 (ip), vehicle: Klucel (hydroxypropylcellulose) (HPC) 95 % of control
